Source: US6569843B1, “Steroidal sapogenins for the control of coccidiosis in animals” (priority 1999, dated 2003)
Where “and” joins values, the source holds several entries; their conditions need not be identical. Equal values may be shown once.

Legend:
Type in all cases: in vivo
E. maxima [1] = experiment: 8 day coccidial challenge study, middle lesion score (Example 4); conditions: day 8
E. acervulina [2] = experiment: 8 day coccidial challenge study, upper lesion score (Example 4); conditions: day 8
[3] = system: mixture of E. acervulina, E. maxima and E. tenella; experiment: 8 day coccidial challenge study in broiler chicks, mortality, weight gain, feed efficiency (Example 4)
E. tenella [4] = experiment: 8 day coccidial challenge study, cecal lesion score (Example 4); conditions: day 8
E. maxima [5] = experiment: 13 day coccidial challenge study, middle intestinal lesion score (Example 3); conditions: day 13
From the text: (§1) Birds were fed a standard corn soybean meal diet and water ad libitum. Birds were placed in 4 foot by 5 foot pens at the rate of 50 birds per pen. On day 6 all birds, except the negative control, were orally challenged with an inoculum comprised of a mixture of E. acervulina, E. maxima and E. tenella. Since each of these three specie of Eimeria produce intestinal lesions in distinctly different regions of the intestinal their effects can be partitioned when scoring the birds. On day 13 all birds were sacrificed by cervical dislocation and the intestines scored for coccidial lesions by the standard Johnson and Reid method.

E. tenella [6] = experiment: 13 day coccidial challenge study, cecal lesion score (Example 3); conditions: day 13
From the text: as §1

[7] = system: mixture of E. acervulina, E. maxima and E. tenella; experiment: 13 day coccidial challenge study in broiler chicks, weight and feed conversion (Example 3)
From the text: as §1

E. acervulina [8] = experiment: 13 day coccidial challenge study, upper intestinal lesion score (Example 3); conditions: day 13
From the text: as §1

[9] = system: mixed culture of E. acervulina, E. maxima and E. tenella; experiment: 14 day coccidial challenge study, steroidal sapogenin and antibiotic compatibility in chicks (Example 5); conditions: SS at 3.3 ppm where included, antibiotic doses not given; for Lesion Scores, Cecal / Lesion Scores, Middle / Lesion Scores, Upper: day 14

CO[C@@H]1[C@@H](OC)[C@H](C)[C@@](O)(CC(=O)O)O[C@H]1[C@H](C)[C@H]1O[C@@]2(CC[C@@](C)([C@H]3CC[C@@](C)([C@@H]4O[C@@H]([C@H]5O[C@](C)(O)[C@H](C)C[C@@H]5C)C[C@@H]4O[C@@H]4C[C@H](OC)[C@@H](OC)[C@H](C)O4)O3)O2)C[C@H](O)[C@H]1C [Maduramicin]
Lesion Scores, Middle, E. maxima (E. maxima [1]; 5 ppm, two different sources): 2.2667 b and 2.3000 b | Lesion Scores, Upper, E. acervulina (E. acervulina [2]; 5 ppm, two different sources): 2.1000 b and 2.3667 b | Feed/Gain ([3]; 5 ppm, two different sources): 1.8503 cd and 1.8463 cd | Mortality, % ([3]; 5 ppm, two different sources): 6.67 a % and 0 a % | Weight Gain, gm ([3]; 5 ppm, two different sources): 266.67 d gm and 269.33 d gm | Lesion Scores, Cecal, E. tenella (E. tenella [4]; 5 ppm, two different sources): 2.6000 bc and 2.3333 bc

CC[C@@]1([C@@H]2O[C@@H]([C@H]3O[C@@](O)(CO)[C@H](C)C[C@@H]3C)C[C@@H]2C)CC[C@H]([C@]2(C)CC[C@]3(C[C@H](O)[C@@H](C)[C@@H]([C@@H](C)[C@@H](OC)[C@H](C)C(=O)O)O3)O2)O1 [Monensin]
Lesion Scores, Middle, E. maxima (E. maxima [1]; 90 gm/ton): 2.4333 bc | Average intestinal lesion score, Middle, maxima (E. maxima [5]; 100 g/ton): 1.58 | Lesion Scores, Upper, E. acervulina (E. acervulina [2]; 90 gm/ton): 1.9667 b | Feed/Gain ([3]; 90 gm/ton): 1.9033 cd | Mortality, % ([3]; 90 gm/ton): 3.33 a % | Weight Gain, gm ([3]; 90 gm/ton): 258.67 d gm | Average intestinal lesion score, Cecal, tenella (E. tenella [6]; 100 g/ton): 1.64 | Feed/Gain ([7]; 100 g/ton): 1.843 | Weight, gm (average bird weight) ([7]; 100 g/ton): 233.0 gm | Lesion Scores, Cecal, E. tenella (E. tenella [4]; 90 gm/ton): 2.9667 bc | Average intestinal lesion score, Upper, acervulina (E. acervulina [8]; 100 g/ton): 1.40

CC[C@@H](C(=O)[C@@H](C)[C@@H](O)[C@H](C)[C@@H]1O[C@@H]([C@@H](CC)C(=O)O)CC[C@@H]1C)[C@H]1O[C@]2(C=C[C@@H](O)[C@]3(CC[C@@](C)([C@H]4CC[C@](O)(CC)[C@H](C)O4)O3)O2)[C@H](C)C[C@@H]1C [Salinomycin]
Lesion Scores, Middle, E. maxima (E. maxima [1]; 60 gm/ton): 2.9000 bc | Average intestinal lesion score, Middle, maxima (E. maxima [5]; 60 g/ton): 1.22 | Lesion Scores, Upper, E. acervulina (E. acervulina [2]; 60 gm/ton): 2.1333 b | Feed/Gain ([3]; 60 gm/ton): 1.8473 cd | Mortality, % ([3]; 60 gm/ton): 6.67 a % | Weight Gain, gm ([3]; 60 gm/ton): 269.67 d gm | Average intestinal lesion score, Cecal, tenella (E. tenella [6]; 60 g/ton): 0.68 | Feed/Gain ([7]; 60 g/ton): 1.624 | Weight, gm (average bird weight) ([7]; 60 g/ton): 246.3 gm | Lesion Scores, Cecal, E. tenella (E. tenella [4]; 60 gm/ton): 2.9000 bc | Average intestinal lesion score, Upper, acervulina (E. acervulina [8]; 60 g/ton): 0.76

Bacitracin Zinc
Feed/Gain [9]: 1.833 | Weight, gm [9]: 259.7 gm | Lesion Scores, Cecal [9]: 1.50 | Lesion Scores, Middle [9]: 2.08 | Lesion Scores, Upper [9]: 1.50

Virginiamycin
Feed/Gain [9]: 1.891 | Weight, gm [9]: 256.3 gm | Lesion Scores, Cecal [9]: 1.17 | Lesion Scores, Middle [9]: 1.58 | Lesion Scores, Upper [9]: 1.17
